Assay results from patent publication EP4711362A1, “LIGAND TARGETING FIBROBLAST ACTIVATION PROTEIN” (Jiangsu Hengrui Pharmaceuticals Co., Ltd., priority 2023, dated 2024).

Experiments:
FAPα enzyme = biological target: T1, FAPα enzyme (Homo sapiens, UniProt Q12884); test: FAPα enzyme activity test (Z-Gly-Pro-AMC substrate, fluorescence); type: biochemical; conditions: for inhibition at 0.1 µM: read-out: Inhibition rate 100 nM; for IC50 value against FAPα enzyme, times that of the positive drug FAPI-04: relative to FAPI-04
T1 sequence (Q12884 1-760): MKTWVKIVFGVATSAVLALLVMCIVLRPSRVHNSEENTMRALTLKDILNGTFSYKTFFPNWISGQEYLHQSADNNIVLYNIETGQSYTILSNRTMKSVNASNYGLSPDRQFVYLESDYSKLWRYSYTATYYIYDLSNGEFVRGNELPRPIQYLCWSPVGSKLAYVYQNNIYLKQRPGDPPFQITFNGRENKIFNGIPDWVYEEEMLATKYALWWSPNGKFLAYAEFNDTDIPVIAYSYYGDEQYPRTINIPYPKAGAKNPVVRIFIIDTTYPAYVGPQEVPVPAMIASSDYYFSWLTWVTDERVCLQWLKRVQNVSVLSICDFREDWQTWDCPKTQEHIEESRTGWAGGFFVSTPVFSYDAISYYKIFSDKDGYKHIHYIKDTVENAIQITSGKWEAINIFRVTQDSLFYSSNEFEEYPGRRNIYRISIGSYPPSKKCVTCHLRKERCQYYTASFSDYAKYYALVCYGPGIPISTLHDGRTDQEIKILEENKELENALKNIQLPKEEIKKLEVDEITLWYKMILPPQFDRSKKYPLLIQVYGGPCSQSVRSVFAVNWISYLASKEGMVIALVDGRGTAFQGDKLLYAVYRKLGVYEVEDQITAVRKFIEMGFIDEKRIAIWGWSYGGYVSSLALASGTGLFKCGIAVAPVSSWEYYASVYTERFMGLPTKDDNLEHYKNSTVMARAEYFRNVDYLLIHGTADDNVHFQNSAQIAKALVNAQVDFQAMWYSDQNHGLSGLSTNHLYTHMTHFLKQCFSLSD
Method: The substrate (Z-Gly-Pro-AMC) was diluted with DMSO to prepare a 0.5 mM stock solution. Before each experiment, the 0.5 mM stock solution was diluted with PBS to 50 µM for later use. The FAPα protein was diluted with PBS to 0.5 ng/µl for later use. The test compounds and positive control were diluted with PBS to a concentration of 100 nM or 200 nM for the determination of single-point inhibition rate. […] The test compounds and positive control were subjected to a 5-fold serial dilution with PBS to obtain 8 gradients for later use, with the highest concentration being 10 µM, and the lowest concentration being […]. Test method: 85 µl of the FAPα dilution and 10 µl of the compound dilution were added to a microplate, uniformly mixed and incubated at 37°C for 10 min. Then, 5 µL of 50 µM substrate was added, uniformly mixed and incubated at 37°C for 10 min. The microplate was read on a microplate reader, with an excitation wavelength of 380 nm and an emission wavelength of 465 nm.

U-87 MG cells = test: PET imaging test of radiolabelled compounds in U-87 MG tumour-bearing mice; type: in vivo, BALB/c nude mice
Method: Cell information: U-87 MG cells (Wuhan Pricella Biotechnology Co., Ltd., Cat. No.: CL-0238, Lot No.: YBMIL8BQHO); Culture conditions: U-87 MG cell specific medium (MEM + 10% FBS + 1% P/S); Number of passages: 6-9;
Germline: BALB/c nude mice; age: 4-5 weeks old; Body weight: 15-22 g;
A sufficient quantity of U-87 MG cells was prepared and inoculated into the posterior position of the right forelimb of […] mice in an inoculation volume of 100 µL, containing 50% Matrigel and 4 × 10^6 cells.
The workbench surface was wiped with 75% medical alcohol and covered with a disposable sterile tablecloth. 0.5 mL insulin syringes, alcohol swabs, cotton swabs and a marking pen were prepared in the injection room. The mice were placed in a mouse restrainer, and the tails of the mice were disinfected with alcohol swabs. 0.2-0.5 mL of the formulated test sample was injected into each mouse via the tail vein, with the time of each injection, the activity of the syringe and the activity of the empty syringe recorded. Tumour-bearing mice were anesthetized with isoflurane, then placed in a prone position on small animal PET beds and fixed. PET static image acquisition was performed for 10 min at 0.5 h, 1 h, 2 h and 4 h after administration; a whole-body CT scan was performed before each static scan to obtain distribution images of the labelled compound throughout the body of tumour-bearing mice. PET images at different time points after administration were obtained for each experimental animal. Major organs were selected and delineated, specifically including: parts such as tumour, muscle, bone, lung, brain, liver and kidney. The radioactive accumulation and clearance of the labelled compounds in tumours and non-target tissues of tumour-bearing mice were observed.
Using the same experimental method as in Example 2, the ratio of radioactive accumulation of the labelled compound ^18F-FAPI-42 in tumours to non-target tissues in tumour-bearing mice was observed. Table 4.1 Ratios of 18F-FAPI-42 in tumours to non-target organs (tissues)

## N#C[C@@H]1CC(F)(F)CN1C(=O)CNC(=O)c1ccnc2ccc(OCCCN3CCN(C(=O)CN4CCN(CC(=O)O)CCN(CC(=O)O)CCN(CC(=O)O)CC4)CC3)cc12 [FAPI-04]
FAPα enzyme; 100 nM compound
  inhibition at 0.1 µM: 92.3%

## N#C[C@@H]1CC(F)(F)CN1C(=O)CNC(=O)c1ccnc2ccc(OCCCN3CCN(C(=O)CN4CCN(CC(=O)[O-])CCN(CC(=O)[O-])CCN(CC(=O)[O-])CC4)CC3)cc12.[68Ga+3] [^68Ga-FAPI-04]
U-87 MG cells; 0.5 h
  Ratio Tumour/brain: 6.36
  Ratio Tumour/gallbladder: 4.89
  Ratio Tumour/kidney: 3.35
  Ratio Tumour/liver: 4.79
  Ratio Tumour/lung: 4.73
  Ratio Tumour/muscle: 15.38
  Ratio Tumour/shoulder joint: 2.62
U-87 MG cells; 0.5 h after administration
  Uptake Brain: 1.16 ± 0.28 % ID/g
  Uptake Gallbladder: 1.51 ± 0.18 % ID/g
  Uptake Kidney: 2.20 ± 0.10 % ID/g
  Uptake Liver: 1.54 ± 0.23 % ID/g
  Uptake Lung: 1.56 ± 0.45 % ID/g
  Uptake Muscle: 0.48 ± 0.39 % ID/g
  Uptake Shoulder joint: 2.82 ± 0.57 % ID/g
  Uptake Tumour (max): 13.17 ± 3.28 % ID/g
  Uptake Tumour (mean): 7.38 ± 1.41 % ID/g
U-87 MG cells; 1.0 h
  Ratio Tumour/brain: 9.13
  Ratio Tumour/gallbladder: 5.46
  Ratio Tumour/kidney: 3.42
  Ratio Tumour/liver: 5.76
  Ratio Tumour/lung: 5.81
  Ratio Tumour/muscle: 13.89
  Ratio Tumour/shoulder joint: 2.72
U-87 MG cells; 1 h after administration
  Uptake Brain: 0.70 ± 0.09 % ID/g
  Uptake Gallbladder: 1.17 ± 0.36 % ID/g
  Uptake Kidney: 1.87 ± 0.20 % ID/g
  Uptake Liver: 1.11 ± 0.31 % ID/g
  Uptake Lung: 1.10 ± 0.12 % ID/g
  Uptake Muscle: 0.46 ± 0.10 % ID/g
  Uptake Shoulder joint: 2.35 ± 0.44 % ID/g
  Uptake Tumour (max): 10.98 ± 2.02 % ID/g
  Uptake Tumour (mean): 6.39 ± 0.92 % ID/g
U-87 MG cells; 2.0 h
  Ratio Tumour/brain: 8.95
  Ratio Tumour/gallbladder: 5.34
  Ratio Tumour/kidney: 3.42
  Ratio Tumour/liver: 5.71
  Ratio Tumour/lung: 5.71
  Ratio Tumour/muscle: 10.21
  Ratio Tumour/shoulder joint: 2.77
U-87 MG cells; 2 h after administration
  Uptake Brain: 0.65 ± 0.21 % ID/g
  Uptake Gallbladder: 1.09 ± 0.36 % ID/g
  Uptake Kidney: 1.70 ± 0.17 % ID/g
  Uptake Liver: 1.02 ± 0.23 % ID/g
  Uptake Lung: 1.02 ± 0.21 % ID/g
  Uptake Muscle: 0.57 ± 0.27 % ID/g
  Uptake Shoulder joint: 2.10 ± 0.36 % ID/g
  Uptake Tumour (max): 10.38 ± 2.02 % ID/g
  Uptake Tumour (mean): 5.82 ± 1.01 % ID/g
U-87 MG cells; 4.0 h
  Ratio Tumour/brain: 8.20
  Ratio Tumour/gallbladder: 4.75
  Ratio Tumour/kidney: 3.34
  Ratio Tumour/liver: 4.47
  Ratio Tumour/lung: 5.43
  Ratio Tumour/muscle: 10.74
  Ratio Tumour/shoulder joint: 2.59
U-87 MG cells; 4 h after administration
  Uptake Brain: 0.55 ± 0.17 % ID/g
  Uptake Gallbladder: 0.95 ± 0.46 % ID/g
  Uptake Kidney: 1.35 ± 0.23 % ID/g
  Uptake Liver: 1.01 ± 0.29 % ID/g
  Uptake Lung: 0.83 ± 0.20 % ID/g
  Uptake Muscle: 0.42 ± 0.10 % ID/g
  Uptake Shoulder joint: 1.74 ± 0.42 % ID/g
  Uptake Tumour (max): 12.40 ± 0.85 % ID/g
  Uptake Tumour (mean): 4.51 ± 0.28 % ID/g

## N#C[C@@H]1CC(F)(F)CN1C(=O)CNC(=O)c1ccnc2ccc(NC(=O)[C@H]3CC[C@H](CNC(=O)CN4CCN(CC(=O)O)CCN(CC(=O)O)CCN(CC(=O)O)CC4)CC3)cc12 [Compound 1, 6-(trans-4-(((2-(4,7,10-tricarboxymethyl-1,4,7,10-tetraazacyclododecan-1-yl)acetyl)amino)methyl)cyclohexan-1-yl)carboxamido-4-((S)-2-(2-cyano-4,4-difluoropyrrolidin-1-yl)-2-oxoethyl)carbamoylquinoline]
FAPα enzyme
  IC50: 0.72 nM
FAPα enzyme; 100 nM compound
  inhibition at 0.1 µM: 84.1%

## N#C[C@@H]1CC(F)(F)CN1C(=O)CNC(=O)c1ccnc2ccc(OCCCN3CCN(C(=O)CN4CCN(CC(=O)O)CCN(CC(=O)O)CC4)CC3)cc12 [FAP-42]
FAPα enzyme
  IC50 value against FAPα enzyme, times that of the positive drug FAPI-04: 2.27 times

## N#C[C@@H]1CC(F)(F)CN1C(=O)CNC(=O)c1ccnc2ccc(OCCCN3CCN(C(=O)CN4CCN5CCN(CC4)CC(=O)[O][Al]([18F])[O]C(=O)C5)CC3)cc12 [^18F-FAPI-42]
U-87 MG cells; 0.5 h
  Ratio Tumour/gallbladder: 1.21
  Ratio Tumour/intestine: 3.14
U-87 MG cells; 1.5 h
  Ratio Tumour/gallbladder: 1.42
  Ratio Tumour/intestine: 1.28
U-87 MG cells; 3.0 h
  Ratio Tumour/gallbladder: 3.15
  Ratio Tumour/intestine: 1.19

## N#C[C@@H]1CC(F)(F)CN1C(=O)CNC(=O)c1ccnc2ccc(NC(=O)[C@H]3CC[C@H](CNC(=O)CN4CCN(CC(=O)O)CCN(CC(=O)O)CC4)CC3)cc12 (relative stereo) [Compound 2, 6-(trans-4-(((2-(4,7-dicarboxymethyl-1,4,7-triazacyclononan-1-yl)acetyl)amino)methyl)cyclohexan-1-yl)carboxamido-4-((S)-2-(2-cyano-4,4-difluoropyrrolidin-1-yl)-2-oxoethyl)carbamoylquinoline]
FAPα enzyme
  IC50 value against FAPα enzyme, times that of the positive drug FAPI-04: 0.71 times

## N#C[C@@H]1CC(F)(F)CN1C(=O)CNC(=O)c1ccnc2ccc(NC(=O)C3CCC4(CC3)CN(C(=O)CN3CCN(CC(=O)O)CCN(CC(=O)O)CCN(CC(=O)O)CC3)CCO4)cc12 (stereo partly drawn) [Compound 3, 6-((6r,9r)-N-(2-(4,7,10-tricarboxymethyl-1,4,7,10-tetraazacyclododecan-1-yl)acetyl)-1-oxa-4-azaspiro[5.5]undecan-9-yl)carboxamido-4-((S)-2-(2-cyano-4,4-difluoropyrrolidin-1-yl)-2-oxoethyl)carbamoylquinoline]
FAPα enzyme
  IC50: 0.57 nM
FAPα enzyme; 100 nM compound
  Inhibition rate 100 nM: 84.70%
